Laboratory results taken from US20250248402A1, “HERBICIDAL COMPOSITIONS AND METHODS FOR CONTROLLING WEEDS” (UPL Mauritius Limited, priority 2024, published 2025).

What was measured:
[1] = test system: common waterhemp, Non-Target Site Resistant "ACR" Population; test: Greenhouse dose-response, effective dose on atrazine-resistant waterhemp; type: in vivo, Amaranthus tuberculatus; settings: 13 days after treatment, visual scale 0-100
[2] = test system: common waterhemp, Non-Target Site Resistant "MCR" Population; test: as above; type: in vivo, Amaranthus tuberculatus; settings: 13 days after treatment, visual scale 0-100

SMILES: CCNc1nc(Cl)nc(NC(C)C)n1 [Atrazine (480 g/L FL), Atrazine]
- ED 20 Estimate [1]: 6.782 g ai/ha
- ED 80 Estimate [1]: 768.664 g ai/ha
- ED 20 Estimate [2]: 20.856 g ai/ha
- ED 80 Estimate [2]: 793.705 g ai/ha
